Holding throughout (type): cell-based, human
Experiment [1] relates to 3iL hESCs. In words: Signaling pathway inhibitor treatment of 3iL hESCs (pluripotency markers, colony numbers). The following applies: treated for 10 days, compared to 3iL hESC control, FIG. 4B. The method, then:
The hESC line H1 (WA-01, passage 28) was used for this study. For routine culture of hESCs in TeSR1 (Stem cell technologies), cells were cultured feeder free on matrigel (BD). Cell media was changed daily. The hESCs were subcultured with 1 mg/ml Dispase (Stem cell technologies) every 5-7 days. 3iL hESCs culture medium contains 1 μM of PD0325901 (Sigma), 2 μM of BIO (Sigma), 2 μM of Dorsomorphin (Sigma) and 10 ng/ml human LIF (Millipore) in TeSR1. 3iL media are prepared fresh and stored at 4° C. for not more than 2 weeks. For treatment with 3iL conditions, hESCs cultured in TeSR1 was treated with 3iL 48 hrs post-seeding. The cells are subsequently subcultured on mitomycin C inactivated mouse fibroblast. Cells are dissociated to single cells using TrypLE (Life Technologies). […]
For expression analysis, total RNA was extracted using the TRIzol reagent (Invitrogen) with chloroform and precipitated with isopropanol. […] RNA concentration was determined with the NanoDrop 2000 (Thermo Scientific). 500 ng of RNA was used for each reverse transcription reaction using the SuperScript II Kit (Invitrogen) to produce the cDNA for subsequent quantitative assays. Quantitative real-time PCR (qPCR) analysis was performed with the SYBR Green Master Mix (KAPA) using the ABI PRISM 7900 sequence detection system. […] Samples were multiplexed and sequenced single read 76 bp (HiSeq 2000, Illumina). […]

The subject of experiment [2] is hESCs. In words: Small molecule treatment of hESCs, expression of pluripotency and lineage markers (qPCR). The following applies: for Gene expression levels of pluripotency markers NANOG and POU5F1: hESCs treated with individual chemicals for 4 days, FIG. 1C; for Expression level of lineage markers / Expression of NANOG and POU5F1: individual chemicals of combination 22, subcultured onto feeders, harvested after 4 days, FIG. 1F.
Protocol: For routine culture of hESCs in TeSR1 (Stem cell technologies), cells were cultured feeder free on matrigel (BD). Cell media was changed daily. The hESCs were subcultured with 1 mg/ml Dispase (Stem cell technologies) every 5-7 days. 3iL hESCs culture medium contains 1 μM of PD0325901 (Sigma), 2 μM of BIO (Sigma), 2 μM of Dorsomorphin (Sigma) and 10 ng/ml human LIF (Millipore) in TeSR1. 3iL media are prepared fresh and stored at 4° C. for not more than 2 weeks. For treatment with 3iL conditions, hESCs cultured in TeSR1 was treated with 3iL 48 hrs post-seeding. The cells are subsequently subcultured on mitomycin C inactivated mouse fibroblast. Cells are dissociated to single cells using TrypLE (Life Technologies). 3iL medium is refreshed daily and cells are subcultured upon confluency. ROCK inhibitor Thiazovivin is added at a final concentration of 1 μM to enhance cell survival for the first few passages. 3iL hESCs used in all the experiments have been cultured for at least 10 passages for adequate conditioning to the new culture condition.
hESCs were dissociated with dispase and treatment starts 48 hrs post seeding. For single chemical and combinatorial chemical treatment, the small molecules are used at the following final concentrations: 0.5 μM A83-01 (Stemgent), 2 μM BIO (Sigma), 3 μM CHIR99021 (Stemgent), 2 μM Dorsomorphin (Sigma), 8 μM Forskolin (Stemgent), 2 μM IDE-1 (Stemgent), 0.5 μM PD153035 (Sigma), 1 μM PD173074 (Sigma), 1 μM PD0325901 (Sigma), 5 μM Pifithrin-α (Sigma) and 1 μM RepSox (Sigma). All small molecules are reconstituted in DMSO. For PI3K pathway inhibition, LY294002 (Sigma) was used at final concentration of 10 μM.

In experiment [3] the test system is LIF signaling. In words: LIF signaling activity in hESCs (GP130, phosphorylated STAT3, STAT3 responsive genes, NANOG). The method, then: For expression analysis, total RNA was extracted using the TRIzol reagent (Invitrogen) with chloroform and precipitated with isopropanol. The precipitated RNA was centrifuged at 13000 rpm at 4° C. for 10 min. The RNA pellet was washed with 70% ethanol and subsequently reconstituted with DEPC-treated water (AMBION). DNA contaminants were digested with DNASE I (Ambion) at 37° C. for 30 min. The DNASE I enzyme is heat inactivated at 70° C. for 10 min. RNA concentration was determined with the NanoDrop 2000 (Thermo Scientific). 500 ng of RNA was used for each reverse transcription reaction using the SuperScript II Kit (Invitrogen) to produce the cDNA for subsequent quantitative assays. Quantitative real-time PCR (qPCR) analysis was performed with the SYBR Green Master Mix (KAPA) using the ABI PRISM 7900 sequence detection system. For RNA-Seq library preparation, the total RNA was further purified by column (Purelink RNA Mini kit, Ambion). […] Samples were multiplexed and sequenced single read 76 bp (HiSeq 2000, Illumina).
hESCs were lysed with a lysis buffer (50 mM Tris-HCl, pH 8.0, 150 mM NaCl, 10 μM ZnCl, 0.5% Nonidet P-40, 5% glycerol) supplemented with protease inhibitor cocktail (Merck). Protein concentration was measured with a Bradford assay kit (Bio-Rad). […] After washing with PBST, signals were detected using the Western Blotting Luminol Reagents (Santa Cruz).

These results are taken from patent US10087416B2, “Culturing pluripotent stem cells” (Agency for Science, Technology and Research, priority 2013, dated 2018).

As to `Cc1cccc(-c2nn(C(=S)Nc3ccccc3)cc2-c2ccnc3ccccc23)n1` [A83-01], the “Pluripotency markers NANOG, OCT4 and TRA-1-60 in 3iL hESCs” value in experiment [1] is “loss of pluripotency markers”. The “Gene expression levels of pluripotency markers NANOG and POU5F1” value (from here on “Gene expression levels”) in experiment [2] is “downregulation”.
Take `O=C1Nc2cc(Br)ccc2/C1=C1/Nc2ccccc2/C1=N\O` [BIO, 6-bromoindirubin-3′-oxime]: in experiment [2], the “Gene expression levels” value is “downregulation”; the “Expression level of lineage markers” value is “stronger upregulation of T and GATA6”; the “Expression of NANOG and POU5F1” value is recorded as “downregulated”.
On to `c1cc(-c2cnn3cc(-c4ccc(OCCN5CCCCC5)cc4)cnc23)ccn1` [DOR, 6-[4-(2-Piperidin-1-ylethoxy)phenyl]-3-pyridin-4-ylpyrazolo[1,5-a]pyrimidine], for which the “Expression of NANOG and POU5F1” value in experiment [2] was “remains in a comparable range”.
As to `O=C(NOC[C@H](O)CO)c1ccc(F)c(F)c1Nc1ccc(I)cc1F` [PD03], in experiment [2], the “Expression level of lineage markers” value is listed as “increase in the PAX6 transcript”; the “Expression of NANOG and POU5F1” value is given as “remains in a comparable range”.
Consider `CCN(CC)CCCCNc1ncc2cc(-c3cc(OC)cc(OC)c3)c(NC(=O)NC(C)(C)C)nc2n1` [PD173074], for which the “Pluripotency markers NANOG, OCT4 and TRA-1-60 in 3iL hESCs” value in experiment [1] was “loss of pluripotency markers”.
`Cc1cccc(-c2[nH]ncc2-c2ccc3ncccc3n2)n1` [RepSOX]: in experiment [2], the “Gene expression levels” value is “downregulation”.
Turning to “LIF: leukemia inhibitory factor, human recombinant”, the NANOG expression levels result in experiment [3] (increasing amount of LIF under 3i treatment, 5 days, FIG. 4A) is recorded as “increased with the addition of LIF in a dosage dependent manner”. Further, the STAT3 phosphorylation entry in experiment [3] (whole cell extracts, Western blot, FIG. 3H) is on record as “weakly activates”.
